Read-outs that look alike come from different tables or passages of the source.

Results on 5 compounds are retold here after patent US5532228A, “Side-chain homologous vitamin D derivatives, process for their production, pharmaceutical preparations containing these derivatives and their use as pharmaceutical agents” (Schering Aktiengesellschaft, priority 1990, dated 1996).

In assay [1] the test system is HL 60 cells (human leukemia cells, promyelocytic cell line). As to the kind of experiment: HL 60 differentiation induction into macrophages (NBT reduction to formazan). The format is cell-based. The conditions noted are these: for EC50: Homo sapiens, HL-60, 96 hours incubation, NBT-TPA, formazan at 650 nm, read-out: ED50 of differentiation induction of HL 60 cells into macrophages (formazan formed); for differentiation-stimulating effect compared with calcitriol: HL 60 cells, versus calcitriol. The protocol: To quantify the differentiation-stimulating effect of calcitriol analogs, the test indicated below was performed:
HL 60 cells are cultivated in tissue culture medium (RPM1--10% fetal calf serum) at 37° C. in an atmosphere of 5% CO2 in air.
The test substances are-dissolved in ethanol and diluted with tissue culture medium without phenol red to the desired concentration. The dilution stages are mixed with the cell suspension in a ratio of 1:10 and 100 microliters each of this cell suspension mixed with substance is pipetted into an indentation of a 96-hole plate. As a control, a cell suspension is mixed analogously with the solvent.
After incubation for 96 hours at 37° C. in 5% CO2 in air, 100 microliters of an NBT-TPA solution (nitro blue tetrazolium (NBT), final concentration in the batch 1 mg/ml, tetradecanoyl-phorbol myristate-13-acetate (TPA), final concentration in the batch 2×10^-7 mol/l) is pipetted into each indentation of the 96-hole plate into the cell suspension.
By incubation for 2 hours at 37° C. and 5% CO2 in air, the NBT is reduced to insoluble formazan because of the intracellular oxygen radical release, stimulated by TPA, in the cells differentiated into macrophages.
To end the reaction, the indentations of the 96-hole plate are drained and the adhering cells are fixed by adding methanol and dried after fixation.
To dissolve the intracellular formazan crystals formed, 100 microliters of potassium hydroxide (2 val/l) and 100 microliters of dimethyl sulfoxide are pipetted into each indentation and are exposed to ultrasonic waves for 1 minute. The concentration of formazan is measured by spectrophotometry at 650 nm.
The concentration of formazan formed is regarded as a measurement for the differentiation induction of the HL 60 cells into macrophages. The relative effectiveness of the test substance results from the quotient of ED50 test substance/ED50 calcitriol.

The test system of assay [2] is Keratinocytes of newborn mice. Kind of assay: antiproliferative test: 3H-thymidine incorporation in DNA of keratinocytes. The format is cell-based, mouse (neonatal NMRI mice). The conditions noted are these: mouse keratinocytes, 24 hours with test substance in serum-free medium at 32.5° C., 4 hours 3H-methylthymidine, read-out: IC50 of inhibition of 3H-thymidine incorporation in DNA. The protocol: Keratinocytes of newborn mice are prepared and cultivated in a modification of the method of Yuspa, S. and Harris, C.
Neonatal NMRI mice of both sexes are killed by decapitation, the skin is removed, washed in an antibiotic-antimycotic solution and, with the dermal side facing down, incubated overnight at 4° C. in dispase II solution (1.2 U/ml in tissue culture medium M199 +25 mmol/l HEPES+15% fetal calf serum (FCS)+50 U/ml of penicillin/streptomycin (P/S) (preparation medium, PM). The epidermis is removed and a single-cell suspension is produced by trypsinization. After centrifuging, the cell sediment is resuspended, the number of living, small, round cells is determined after trypan blue staining and the cells are sown in a density of 4×10^5 cells/cm^2 in Primaria 24-hole plates in tissue culture medium (M199+15% FCS+50 U/ml of P/S). […] Then, 0.4 microcuries/50 microliters of ^3 H-methylthymidine (40 Ci/mmol) is added. After 4 hours, the medium is suctioned off and the reaction is ended by adding 500 microliters of ice-cold 10% trichloroacetic acid (TCA). The cells are washed with TCA and PBS, lysed by incubation in a proteinase K-solution (10 mmol/l of tris-HCl, 10 mmol/l of EDTA, 10 mmol/l of NaCl, 0.2% triton-X 100, pH 8.0, 50 micrograms/ml of […]) and the lysate is clarified by centrifuging. In the supernatant fluid, the radioactivity is determined by scintillation photometry and, after specific staining of the DNA with diamidinophenylindole (DAPI), the DNA concentration is determined by fluorescence photometry.

As for `C=C1/C(=C\C=C2/CCC[C@]3(C)[C@@H]([C@H](C)CCCC(C)(C)O)CC[C@@H]23)C[C@@H](O)C[C@@H]1O` [calcitriol, lalpha,25-dihydroxycholecalciferol, reference compound], in assay [1], the EC50 was found to be 1.8 nM. The IC50 in assay [2] (Keratinocyte) was found to be 2 nM. For the compound `C=C1/C(=C\C=C2/CCC[C@]3(C)[C@@H]([C@H](C)C/C=C/[C@H](O)CC4CC4)CC[C@@H]23)C[C@@H](O)C[C@@H]1O` [compound C, 26,27-cyclo-24a,24b-dihomo-9,10-secocholesta-5Z,7E,10(19),23E-tetraene-1(S),3(R),24a(R)-triol], in assay [1], the “differentiation-stimulating effect compared with calcitriol” value is given as “practically do not differ” and the EC50 was found to be 2.2 nM. On to `C=C1/C(=C\C=C2/CCC[C@]3(C)[C@@H]([C@H](C)C/C=C/C(O)CC(C)C)CC[C@@H]23)C[C@@H](O)C[C@@H]1O` (single isomer, unassigned) [compound A], for which, in assay [2], the IC50 turned out to be 10 nM. Still for that read-out and setting: to `C=C1/C(=C\C=C2/CCC[C@]3(C)[C@@H]([C@H](C)C/C=C/C(O)CC(C)C)CC[C@@H]23)C[C@@H](O)C[C@@H]1O` (single isomer, unassigned) [compound B] belongs 3.2 nM. Consider `C=C1/C(=C\C=C2/CCC[C@]3(C)[C@@H]([C@H](C)C/C=C/[C@@H](O)CC4CC4)CC[C@@H]23)C[C@@H](O)C[C@@H]1O` [compound D, 26,27-cyclo-24a,24b-dihomo-9,10-secocholesta-5Z,7E,10(19),23E-tetraene-1(S),3(R),24a(S)-triol], for which, in assay [1], the “differentiation-stimulating effect compared with calcitriol” value is given as “practically do not differ” and the EC50 is 2.5 nM.
